Source: patent publication US20080070990A1, “USE OF RACTOPAMINE ENANTIOMERS” (STIRLING PRODUCTS LIMITED, priority 2006, published 2008)
pKi: −log10 of the molar value. Counter-ions that a name gives are not always drawn.

How the values were obtained:
rats [1] = test: Neuropharmacological study in rats (Irwin test); format: in vivo; conditions: for drug-related stress, Irwin test: rats, oral
mice [2] = test: Stress testing in mice, methodology of Aberg (U.S. Pat. No. 6,372,799); format: in vivo; conditions: preliminary results
mice [3] = test: Spontaneous motor activity studies in mice; format: in vivo; conditions: oral
livestock animals = test: Stress in livestock animals (applicant's findings); conditions: in vivo
animals = test: Cardiovascular parameters in animals; format: in vivo; conditions: concentrations corresponding to doses suitable for growth promotion
rats [4] = conditions: cited from earlier work
[5] = molecular target: adrenergic β1(h) receptor (Homo sapiens, UniProt P08588); test: Affinity (Ki) for adrenergic β-receptors, β1; format: binding
[6] = molecular target: adrenergic B3 (h) receptor (Homo sapiens, UniProt P13945); test: Affinity (Ki) for adrenergic β-receptors, β3; format: binding
obese animals = test: Weight loss in obese animals; conditions: in vivo
pigs = conditions: literature; cited from earlier work
[7] = test system: adrenergic beta-receptors in adipose tissue; conditions: animals exposed to racemic ractopamine; cited from earlier work
adrenergic beta-receptor = conditions: cited from earlier work

Chain of adrenergic B3 (h) receptor (P13945 whole entry): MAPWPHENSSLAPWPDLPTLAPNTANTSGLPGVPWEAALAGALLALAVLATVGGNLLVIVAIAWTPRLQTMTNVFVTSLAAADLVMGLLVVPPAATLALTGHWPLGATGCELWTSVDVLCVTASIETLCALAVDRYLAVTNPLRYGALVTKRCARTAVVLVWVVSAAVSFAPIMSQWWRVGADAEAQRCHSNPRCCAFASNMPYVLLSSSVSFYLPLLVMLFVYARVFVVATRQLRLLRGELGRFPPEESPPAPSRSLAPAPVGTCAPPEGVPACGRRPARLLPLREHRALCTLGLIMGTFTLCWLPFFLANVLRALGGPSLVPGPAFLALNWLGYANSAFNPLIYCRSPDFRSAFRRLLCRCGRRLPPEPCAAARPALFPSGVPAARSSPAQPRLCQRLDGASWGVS
Chain of adrenergic β1(h) receptor (P08588 whole entry): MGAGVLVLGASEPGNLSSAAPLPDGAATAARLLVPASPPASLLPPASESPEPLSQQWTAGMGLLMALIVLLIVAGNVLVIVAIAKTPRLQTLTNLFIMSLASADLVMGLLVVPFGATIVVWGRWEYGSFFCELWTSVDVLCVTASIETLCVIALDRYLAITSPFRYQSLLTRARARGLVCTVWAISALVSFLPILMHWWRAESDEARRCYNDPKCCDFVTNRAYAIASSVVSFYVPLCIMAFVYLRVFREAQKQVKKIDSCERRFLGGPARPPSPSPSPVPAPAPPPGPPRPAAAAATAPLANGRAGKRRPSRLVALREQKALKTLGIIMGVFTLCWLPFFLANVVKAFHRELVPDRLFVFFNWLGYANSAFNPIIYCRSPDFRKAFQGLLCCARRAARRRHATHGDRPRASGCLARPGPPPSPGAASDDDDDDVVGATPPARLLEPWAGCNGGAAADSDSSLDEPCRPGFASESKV

C[C@H](CCc1ccc(O)cc1)NC[C@H](O)c1ccc(O)cc1.Cl (racemic) [RR-ractopamine, RR 4-Hydroxy-a [[[3-(4-hydroxyphenyl)-1-methylpropyl]amino]methyl]benzenemethanol hydrochloride]
drug-related stress, Irwin test (rats [1]): do not show signs of drug-related stress
CNS-mediated stress, stress testing in mice (mice [2]): not causing stress
drug-related stress, spontaneous motor activity (mice [3]): no signs of drug-related stress
stress as side effect in livestock animals (livestock animals): does not cause this side effect in livestock animals
effects on cardiovascular parameters (animals): failed to reveal detrimental effects on cardiovascular parameters
potency rank among the four stereoisomers in vivo (rats [4]): most potent

CC(CCc1ccc(O)cc1)NCC(O)c1ccc(O)cc1 (racemic) [Ractopamine, 4-hydroxy-a-[[[3-(4-hydroxyphenyl)-1-methylpropyl]amino]methyl]benzenemethanol hydrochloride]
pKi [5]: 6.59
pKi [6]: 4.85
affinity for beta-3 receptors (in words) [6]: negligible affinity for beta-3 receptors
drug-related stress, Irwin test (rats [1]): demonstrate stress
drug-related stress, spontaneous motor activity (mice [3]): drug-related and CNS-mediated (“psychological”) stress
weight loss in obese animals (obese animals): cause weight loss in obese animals
stress in pigs / livestock animals (pigs): cause stress in livestock animals
reduction of concentration of adrenergic beta-receptors in adipose tissue [7]: 50%

CC(CCc1ccc(O)cc1)NCC(O)c1ccc(O)cc1 (single isomer, unassigned) [RS-enantiomer]
adrenergic beta-receptor stimulating activity (adrenergic beta-receptor): reduced beta-receptor activity when compared with RR-ractopamine

C[C@H](CCc1ccc(O)cc1)NC[C@@H](O)c1ccc(O)cc1 (single isomer, unassigned) [SR-enantiomer]
adrenergic beta-receptor stimulating activity (adrenergic beta-receptor): reduced beta-receptor activity when compared with RR-ractopamine

C[C@@H](CCc1ccc(O)cc1)NC[C@@H](O)c1ccc(O)cc1 (single isomer, unassigned) [SS-enantiomer]
adrenergic beta-receptor stimulating activity (adrenergic beta-receptor): completely devoid of adrenergic beta-receptor stimulating activity

CC(C)(C)NC[C@H](O)c1ccc(O)c(CO)c1 [R-salbutamol]
affinity for beta-3 receptors (in words) [6]: negligible affinity for beta-3 receptors
CNS-effects related to stress in laboratory animals (rats [1]; laboratory animals): not causing CNS-effects related to stress in laboratory animals
stress in pigs / livestock animals (pigs): does not induce stress in pigs
